Experimental data published in patent EP0652009A1, “Identification and use of protease inhibitors” (ELI LILLY AND COMPANY, priority 1993, dated 1995).
Non-standard residues stand in square brackets, D forms with d. Residues, ends and D or L forms follow the SMILES beside them. Sta = CC(C)C[C@H](N)[C@@H](O)CC(=O)O; N(iPr)Gly = CC(C)NCC(=O)O

Key:
βAP production = experiment: Assay 4: βAP production inhibition (cellular assay, ELISA of conditioned media, normalised to MTT); format: cell-based, human; Chinese hamster; conditions: compound at 10 µg/mL; 293 751 SWE and CHO 751 SWE cells (table does not say which); βAP ELISA divided by MTT result, relative to drug-free control; mean and standard deviation of at least six replicate assays
Description: The test system used to measure the βAP production inhibition activity is typically a cellular assay or an animal model. Preferably, the βAP production inhibition activity is obtained by direct measurement of βAP production in a cellular assay, as described in WO9410569, the full disclosure of which is incorporated herein by reference. This assay is exemplified in Assay 4, below.
Two cell lines (human kidney cell line 293 and Chinese hamster ovary cell line CHO) were stably transfected with the gene for APP-751 containing the double mutation Lys₆₅₁-Met₆₅₂ to Asn₆₅₁-Leu₆₅₂ (APP-751 numbering) commonly called the Swedish mutation using the method described in Citron et al., (1992) Nature 360:672-674. The transfected cell lines were designated as 293 751 SWE and CHO 751 SWE, and were plated in Corning 96 well plates at 2.5x10⁴ or 1x10⁴ cells per well respectively in Dulbecco's minimal essential media plus 10% fetal bovine serum. Following overnight incubation at 37°C in an incubator equilibrated with 10% carbon dioxide (CO₂), the media were removed and replaced with 200 µL per well of media containing an aspartyl protease inhibitor. After a two hour pretreatment period, the media were again removed and replaced with fresh media containing the aspartyl protease inhibitor and the cells were incubated for an additional two hours.
After treatment, plates were centrifuged in a Beckman GPR at 1200 rpm for five minutes at room temperature to pellet cellular debris from the conditioned media. From each well, 100µL of conditioned media were transferred into an ELISA plate precoated with antibody 266 against βAP-13-28 (Seubert et al., supra.) and stored at 4°C overnight. An ELISA assay employing labelled antibody 6C6 (against βAP-1-16) was run the next day to measure the amount of βAP produced.
Cytotoxic effects of the compounds were measured by a modification of the method of Hansen et al., (1989) J. Immun. Meth. 119:203-210. To the cells remaining in the tissue culture plate, was added 25 µL of a 3,(4,5-dimethylthiazol-2-yl)2,5-diphenyltetrazolium bromide (MTT) stock solution (5 mg/mL) to a final concentration of 1 mg/mL. Cells were incubated at 37°C for one hour, and cellular activity was stopped by the addition of an equal volume of MTT lysis buffer (20% w/v sodium dodecylsulfate in 50% DMF, pH 4.7). Complete extraction was achieved by overnight shaking at room temperature. The difference in the OD562nm and the OD650nm was measured in a Molecular Devices UVmax microplate reader as an indicator of the cellular viability.
The results of the βAP ELISA were fit to a standard curve and expressed as ng/mL βAP peptide. In order to normalize for cytotoxicity, these βAP results were divided by the MTT results and expressed as a percentage of the results from a drug-free control.
The compounds prepared above in Examples 9, 12, 13, 20-23, 23A, 24, 30, 41-43, 45, and 48 were assayed for βAP production inhibition activity in cells at 10 µg/mL using Assay 4. The results presented in Assay Table 4, below, are the mean and standard deviation of at least six replicate assays. Assay Table 4

Human liver cathepsin D = Human liver cathepsin D (Homo sapiens, UniProt P07339); experiment: Assay 2: cathepsin D inhibition activity (non-cellular fluorometric assay); format: biochemical; parameters: Human liver cathepsin D (Athens Research and Technology, Athens, GA); purchased Athens Research and Technology, Athens, GA; conditions: compound at 10 µg/mL; percent inhibition of control activity; mean and standard deviation of at least four replicate assays
Chain of Human liver cathepsin D (P07339 169-412 limits assumed): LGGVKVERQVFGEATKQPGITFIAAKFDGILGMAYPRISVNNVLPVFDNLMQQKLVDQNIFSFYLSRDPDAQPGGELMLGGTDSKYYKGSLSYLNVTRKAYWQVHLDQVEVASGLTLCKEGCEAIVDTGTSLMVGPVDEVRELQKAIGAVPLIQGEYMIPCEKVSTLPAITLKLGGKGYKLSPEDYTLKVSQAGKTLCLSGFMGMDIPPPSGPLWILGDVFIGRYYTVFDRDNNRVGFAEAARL
Chain of Human liver cathepsin D (P07339 65-162 limits assumed): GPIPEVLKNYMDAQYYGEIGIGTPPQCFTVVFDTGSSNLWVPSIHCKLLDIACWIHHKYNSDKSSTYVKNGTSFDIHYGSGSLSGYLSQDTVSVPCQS
Description: A second non-cellular assay for determining in vitro aspartyl protease inhibitory activity utilizes a microtiter plate, where a suitable aspartyl protease, such as cathepsin D is added to each well together with controls. A suitable fluorometric substrate is added to each well. The resultant reaction mixture is allowed to react for a preselected time, e.g., 30 minutes. After enzyme activity is terminated, the substrate or its product may be determined fluorometrically and then the protease inhibition activity may be calculated based on the rates of substrate turnover. This assay is exemplified in Assay 2, below.
A fluorometric assay was adapted from the method disclosed by Murakami et al., (1981) Anal. Biochem. 110:232-239 for measuring renin activity. Human liver cathepsin D (Athens Research and Technology, Athens, GA) was diluted in assay buffer, 200mM NaOAc, pH 4.5, 150mM NaCl to 500 ng/mL and then 100 µL of this cathepsin D solution was added to each well of a 96 well plate with the exception of control wells which received just 100 µL of assay buffer. Compound stocks were prepared by dissolving an aspartyl protease inhibitor in DMSO for each concentration tested in the assay and then 5 µL of compound stock was added to each of the wells prepared above. Blank and enzyme control wells each received 5 µL of the DMSO vehicle.
Following a ten minute incubation at 25°C to allow enzyme/compound interaction, 5 µL of 500µM fluorometric substrate (Suc-Arg-Pro-Phe-His-Leu-Leu-Val-Try-AMC [SEQ ID NO:4], Bachem Biosciences, Philadelphia, PA) in DMSO was added per well to initiate the reaction. After incubation at 37°C for 30 minutes, cathepsin D activity was terminated by the addition of 100 µL per well of 400 mU/mL microsomal leucine aminopeptidase (EC 3.4.11.2, Sigma, St. Louis, MO) in 1M Tris-HCl, pH 8.0.
The plates were then analyzed in a fluorometer (CytoFluor 2350, Millipore, Bedford, MA) with an excitation wavelength of 360nm and an emission wavelength of 460nm, in order to check for background fluorescence due to test compounds. Following a two hour incubation at 37°C, to allow the aminopeptidase to release the fluorophore, 7-amido-4-methylcoumarin (AMC) from the products of cathepsin D cleavage, the plates were again analyzed in the fluorometer. In order to check for potential false positives, i.e., inhibitors of microsomal leucine aminopeptidase, residual aminopeptidase activity was monitored directly in each well by the addition of 20 µL/well of 2.5mM Leu-pNA (Bachem Biosciences, Philadelphia, PA) in 10% DMSO. Aminopeptidase activity was measured as an increase in the absorbance at 405nm in a UVmax microplate reader (Molecular Devices, Menlo Park, CA).
The compounds prepared in Examples 9, 12, 13, 20-23, 23A, 24, 30, 41-43, 45, and 48 were assayed at 10 µg/mL for cathepsin D inhibition activity using Assay 2. Cathepsin D activity was linear under these conditions and the results are expressed as percent inhibition of the control activity in Assay Table 2, below. All results presented are the mean and standard deviation of at least four replicate assays. Assay Table 2

Human brain cathepsin D = target: T1, Human brain cathepsin D (Homo sapiens, UniProt P07339); experiment: Assay 1: cathepsin D inhibition activity (non-cellular assay, porcine renin tetradecapeptide substrate, RP-HPLC); format: biochemical; conditions: purified human brain cathepsin D, pH 4.5, 44 µM porcine renin tetradecapeptide, 37°C
T1 construct: Human brain cathepsin D was purified from frozen post-mortem cortex; from tissue; host or cells: human post-mortem brain cortex
T1 sequence (P07339 65-412): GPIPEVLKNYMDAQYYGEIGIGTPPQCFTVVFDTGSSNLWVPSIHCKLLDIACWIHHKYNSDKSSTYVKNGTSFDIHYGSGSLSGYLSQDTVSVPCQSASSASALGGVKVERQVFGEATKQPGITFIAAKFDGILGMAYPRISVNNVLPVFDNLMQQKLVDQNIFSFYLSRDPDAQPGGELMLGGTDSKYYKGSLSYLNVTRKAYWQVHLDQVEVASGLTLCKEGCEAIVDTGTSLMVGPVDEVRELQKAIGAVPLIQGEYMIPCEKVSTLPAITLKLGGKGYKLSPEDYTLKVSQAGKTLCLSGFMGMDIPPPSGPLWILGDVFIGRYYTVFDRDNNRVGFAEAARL
Description: An example of a non-cellular assay that may be used to determine in vitro aspartyl protease inhibitory activity reacts partially purified human brain cathepsin D with a substrate, e.g., porcine renin tetradecapeptide. The resultant reaction mixture is divided into portions and each portion is incubated for a different period of time. After the reaction is stopped, the turnover of substrate in each portion is determined using reverse-phase HPLC. Protease inhibition activity may be calculated based on the rates of substrate turnover. This assay is exemplified in Assay 1, below. Human brain cathepsin D was purified from frozen post-mortem cortex substantially in accordance with the method of Nixon and Morotta, (1984) J. Neurochem. 43:507-516. The cortex material was prepared and applied to a DEAE-Sepharose® column. The flow through fraction was dialyzed against 50mM Tris-HCl, pH 7.5, and applied to concanavalin A Sepharose® and eluted with 50mM Tris, pH 7.5, 0.5M methyl α-D-mannopyranoside. The eluted cathepsin D activity was dialyzed against 25mM Tris, pH 7.5, and stored at -40°C (Con A pool) until use. For each assay, 50 μL of the Con A pool was diluted to 270 μL in 200mM sodium citrate, pH 4.5, 150mM sodium chloride (NaCl), and incubated for 10 minutes at 4°C with 15 μL of compound stock diluted in dimethylsulfoxide (DMSO). The substrate, porcine renin tetradecapeptide ([…] [SEQ ID NO:3], Bachem Bioscience, Inc., Philadelphia, PA), was added to each reaction mixture to yield a final concentration of 44 μM in a total volume of 300 μL. The samples were incubated at 37°C for 0, 10, 20, or 30 minutes, and then boiled for 5 minutes to stop the reaction. The samples were centrifuged in a microcentrifuge for 10 minutes at 14,000 rpm at 4°C. After centrifugation, 200 μL of each reaction was injected onto […] column (Vydac, Hesperia, CA) with a Perkin Elmer ISS 100 autosampler and eluted with a gradient eluent of 0-50% CH3CN in 0.1% CF3CO2H at 2 mL/min. Peptide product peaks were monitored at 220nm with a Perkin Elmer LC 95 detector and integrated with Rainin Dynamax software in order to quantitate activity.

Compound | inhibition at 10 µg/mL (Human liver cathepsin D) [%] | IC50 (Human brain cathepsin D) [nM] | inhibition at 10 µg/mL (βAP production) [%] | other results
CC(C)[C@H](NC(=O)OC(C)(C)C)C(=O)N[C@@H](Cc1ccccc1)[C@H](O)Cc1ccccc1C(=O)NC(C)(C)C [Example 23A, [2R-(2R*,3S*,6S*)]-N-t-Butyl-2-[2-hydroxy-3-phenylmethyl-4-aza-5-oxo-6-N(t-butoxycarbonyl)amino-7-methyl]octyl benzamide] | 32.5 ± 4.7 | – | 32.5 ± 3.3 | –
CC[C@H](C)[C@H](NC(=O)C[C@H](O)[C@H](CC(C)C)NC(=O)CNC(C)C)C(=O)N[C@@H](C)C(=O)N[C@H](C(=O)O)[C@@H](C)O [Example 44, (CH3)2CH-Gly-Sta-Ile-Ala-Thr-OH] (H-[N(iPr)Gly][Sta]IAT-OH) | – | > 100 | – | –
CC(C)C[C@H](NC(=O)[C@@H](NC(=O)CNC(C)C)C(C)C)[C@@H](O)CC(=O)N[C@@H](C)C(=O)N[C@H](C(=O)O)[C@@H](C)O [Example 46, (CH3)2CH-Gly-Val-Sta-Ala-Thr-OH] (H-[N(iPr)Gly]V[Sta]AT-OH) | – | > 250 | – | –
CC[C@H](C)[C@H](NC(=O)[C@@H](NC(=O)[C@@H](NC(=O)CNC(C)C)C(C)C)C(C)C)C(=O)N[C@@H](CC(C)C)[C@@H](O)CC(=O)N[C@H](C(=O)O)[C@@H](C)O [Example 47, (CH3)2CH-Gly-Val-Val-Ile-Sta-Thr-OH] (H-[N(iPr)Gly]VVI[Sta]T-OH) | – | > 250 | – | –
[1S-(1R*,4R*,5S*)]-N-(1-(Propyl)-2-oxo-3-aza-4-phenylmethyl-5-hydroxy-6-(2-(1-t-butylamino-1-oxomethyl)phenyl)hexyl)-quinolin-2-yl carboxamide [Example 21] | – | – | – | βAP Production Inhibition (βAP production): 78.3 ± 1.5%; Cathepsin D Inhibition (Human liver cathepsin D): 78.3 ± 3.8%

Second part, led by results:

inhibition at 10 µg/mL (Human liver cathepsin D) [%] | IC50 (Human brain cathepsin D) [nM] | Compound | inhibition at 10 µg/mL (βAP production) [%] | other results
12.4 ± 3.7 | – | CC(C)[C@H](NC(=O)c1cnc2ccccc2n1)C(=O)N[C@@H](Cc1ccccc1)[C@H](O)Cc1ccccc1C(=O)NC(C)(C)C [Example 12, [1S-(1R*,4R*,5S*)]-N-(1-Isopropyl-2-oxo-3-aza-4-phenylmethyl-5-hydroxy-6-(2-(1-t-butylamino-1-oxomethyl)phenyl)hexyl)-2-quinoxalinyl acetamide] | 12.4 ± 6 | –
91.4 ± 0.4 | – | CC(C)[C@H](NC(=O)c1ccc2ccccc2c1)C(=O)N[C@@H](Cc1ccccc1)[C@H](O)Cc1ccccc1C(=O)NC(C)(C)C [Example 13] | 91.4 ± 3.9 | –
94.8 ± 0.6 | – | CC(C)C[C@H](NC(=O)c1ccc2ccccc2n1)C(=O)N[C@@H](Cc1ccccc1)[C@H](O)Cc1ccccc1C(=O)NC(C)(C)C [Example 20, [1S-(1R*,4R*,5S*)]-N-(1-(2-Methylpropyl)-2-oxo-3-aza-4-phenylmethyl-5-hydroxy-6-(2-(1-t-butylamino-1-oxomethyl)phenyl)hexyl)-quinolin-2-yl carboxamide] | 94.8 ± 3.1 | –
